Measurements taken from PMC9693918, “May Sulfonamide Inhibitors of Carbonic Anhydrases from Mammaliicoccus sciuri Prevent Antimicrobial Resistance Due to Gene Transfer to Other Harmful Staphylococci?” (International Journal of Molecular Sciences, 2022).
Read-outs that look alike come from different tables or passages of the source.

Molecular target: T1, MscCAγ (M. sciuri γ-CA) (Mammaliicoccus sciuri, UniProt A0AB37HNM1)
T1 construct: gene OWO77_11715
T1 sequence (A0AB37HNM1 1-169): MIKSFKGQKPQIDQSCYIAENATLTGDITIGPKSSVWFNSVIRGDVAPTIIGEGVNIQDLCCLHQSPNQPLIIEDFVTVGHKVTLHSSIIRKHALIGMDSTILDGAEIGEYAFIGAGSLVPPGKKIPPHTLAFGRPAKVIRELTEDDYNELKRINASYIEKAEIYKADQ
Assay: stopped-flow CO2 hydration assay, phenol red
Assay type: biochemical
Text: stopped-flow CO2 hydration assay, phenol red on MscCAγ (M. sciuri γ-CA)

Row | SMILES | Ki (read-out: KI (nM) ^a / MscCAγ) | Ki
1 | CCN[C@H]1CN(CCCOC)S(=O)(=O)c2sc(S(N)(=O)=O)cc21 [BRZ] | 100 nM | 
2 | NS(=O)(=O)c1nnc(NS(=O)(=O)c2ccccc2)s1 [BZA] | 444 nM | 
3 | Cc1ccc(-c2cc(C(F)(F)F)nn2-c2ccc(S(N)(=O)=O)cc2)cc1 [CLX] | 3020 nM | 
4 | NS(=O)(=O)c1cc(Cl)c(Cl)c(S(N)(=O)=O)c1 [DCP] | 8580 nM | 
5 | NS(=O)(=O)c1cc2c(cc1Cl)NCNS2(=O)=O [HCT] | 18300 nM | 
6 | NS(=O)(=O)c1ccc(S(=O)(=O)Nc2cccc3c(Cl)c[nH]c23)cc1 [IND] | 369 nM | 
7 | CC(=O)N=c1sc(S(N)(=O)=O)nn1C [MZA] | 94.5 nM | 
8 | O=C1NS(=O)(=O)c2ccccc21 [SAC] | 29700 nM | 
9 | CCN1CCCC1CNC(=O)c1cc(S(N)(=O)=O)ccc1OC (stereo not shown) [SLP] | 2200 nM | 
10 | NS(=O)(=O)c1ccc(N2CCCCS2(=O)=O)cc1 [SLT] | 405 nM | 
11 | CC1(C)O[C@@H]2[C@@H](CO[C@@]3(COS(N)(=O)=O)OC(C)(C)O[C@@H]23)O1 [TPM] | 578 nM | 
12 | Cc1onc(-c2ccccc2)c1-c1ccc(S(N)(=O)=O)cc1 [VLX] | 1540 nM | 
13 | NS(=O)(=O)Cc1noc2ccccc12 [ZNS] | 923 nM | 
14 | NCCc1ccc(S(N)(=O)=O)cc1 [compound 6, 6] |  | 176 nM
15 | NS(=O)(=O)c1ccc(CCNS(=O)(=O)c2ccc([N+](=O)[O-])cc2CO)cc1 [compound 21, 21] | 83.4 nM | 
16 | Nc1ccc(S(=O)(=O)Nc2ccc(S(N)(=O)=O)cc2)cc1 [compound 22, 22] | 72.5 nM | 
